Patent publication US6743795B1, “3-nitropyridine derivaives and the pharmaceutical compositions containing said derivatives” (Dong Wha Pharm. Ind. Co. Ltd., priority 1999, dated 2004)

Experiments:
HBV polymerase = target: T1, HBV polymerase (Hepatitis B virus genotype A2 subtype adw2, UniProt P03159); assay: In vitro reverse transcription activity of HBV polymerase (ELISA-type, DIG/biotin nucleotides); format: biochemical; conditions: for inhibition at 0.01 µg/mL / inhibition at 0.1 µg/mL / inhibition at 1 µg/mL: read-out: Inhibition activity on HBV-RT (%)
T1 construct: made in house; host or cells: E. coli
T1 sequence (P03159 whole entry): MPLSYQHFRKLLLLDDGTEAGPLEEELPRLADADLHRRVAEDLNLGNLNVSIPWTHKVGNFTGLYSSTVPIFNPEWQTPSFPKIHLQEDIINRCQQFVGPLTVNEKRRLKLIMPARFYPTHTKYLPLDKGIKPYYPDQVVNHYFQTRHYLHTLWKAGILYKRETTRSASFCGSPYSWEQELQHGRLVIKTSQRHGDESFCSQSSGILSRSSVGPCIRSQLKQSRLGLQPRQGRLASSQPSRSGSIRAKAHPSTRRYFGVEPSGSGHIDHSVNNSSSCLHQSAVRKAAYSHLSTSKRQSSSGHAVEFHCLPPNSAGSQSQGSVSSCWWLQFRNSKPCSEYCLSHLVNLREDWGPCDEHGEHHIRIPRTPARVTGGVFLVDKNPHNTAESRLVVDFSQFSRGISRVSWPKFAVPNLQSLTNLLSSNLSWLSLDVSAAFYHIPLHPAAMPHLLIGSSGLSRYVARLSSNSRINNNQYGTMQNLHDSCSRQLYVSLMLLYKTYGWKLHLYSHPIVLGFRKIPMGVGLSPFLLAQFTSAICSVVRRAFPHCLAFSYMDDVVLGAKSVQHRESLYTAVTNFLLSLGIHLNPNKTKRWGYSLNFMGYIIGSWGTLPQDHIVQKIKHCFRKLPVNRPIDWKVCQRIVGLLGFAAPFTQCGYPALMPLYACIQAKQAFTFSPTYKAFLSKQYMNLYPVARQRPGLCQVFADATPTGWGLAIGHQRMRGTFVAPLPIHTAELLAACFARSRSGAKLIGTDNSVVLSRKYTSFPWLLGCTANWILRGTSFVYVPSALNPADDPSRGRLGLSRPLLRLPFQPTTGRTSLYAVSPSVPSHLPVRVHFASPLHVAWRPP
Procedure: <Experiment 1> Inhibitory Effect on the In Vitro Activities of HBV Polymerase in Reverse Transcription
The following in vitro experiment was performed to determine the effect of the compounds of formula 1 on the activity of HBV polymerase during reverse transcription.
The present inventors submitted application for a patent concerning HBV polymerase genetically expressed in and separated from E.coli, the process of its preparation, and the method to measure the enzyme activities (KR 94-3918, KR 96-33998). In the present experiments HBV polymerase was used which had been expressed in E. coli as stated above.
The method used in the present invention to measure in vitro reverse transcribing activities of HBV polymerase is as follows. Basic principles are the same as for ELISA. Nucleotides with biotin or digoxigenin group attached are included as substrates and anti-DIG antibodies attached to peroxidase enzyme recognize the polymerized substrates.
To the wells coated with streptavidin, 20 μl of HBV polymerase, 20 μl of reaction mixture (10 μM each of DIG-UTP and Biotin-UTP, 46 mM Tris-HCl, 266 mM KCl, 27.5 mM MgCl2, 9.2 mM DTT substrate/primer nybrid), and 20 μl of test compound (added to 1, 0.1, and 0.01 μg/ml) were added and allowed to react at 22° C. for 15 hrs. During this reaction, HBV polymerase catalyzes DNA synthesis and digoxigenin and biotin attached to nucleotides form bonds with streptavidin coated on the bottom of wells. When the reaction was done, each well was washed with 250 μl of cleaning buffer (pH 7.0) for 30 seconds, which was repeated five times to remove remaining impurities. 200 μl of anti-DIG-POD antibody was added to each well and allowed to react for 1 hr at 37° C., and the wells were washed with cleaning buffer to remove impurities. 200 μl each of ABTS™, a substrate of peroxidase, was then added and allowed to react at room temperature for 30 min. Absorbance was measured at 405 nm using ELISA reader.
The percentage of reduction in HBV polymerase activities for reverse transcription was calculated using the group without test compound as a control and the results are shown in Table 3.

HBV = assay: Proliferation of HBV in HBV producing cell line HepG 2.2.15 (competitive PCR of culture supernatant); format: cell-based, Hepatitis B virus; conditions: HepG 2.2.15, one week; for inhibition at 0.01 µg/mL / inhibition at 0.1 µg/mL / inhibition at 1 µg/mL: Hepatitis B virus, HepG2.2.15, 168 h, read-out: Inhibitory effect on the HBV proliferation: Inhibition activity on HBV-RT (%)
Procedure: <Experiment 2> Inhibitory Effect on the Proliferation of HBV in HBV Producing Cell Line
The following experiment was performed to determine inhibitory effects of compounds of formula 1 on the proliferation of HBV producing cell line.
To test for antiviral effect, replication and proliferation of HBV were measured in HepG 2.2.15, a human liver cancer cell line.
The cell concentration was adjusted to 1×10^5 cells/ml and 1 ml was added to each well of a 24-well cell culture plate, which was then kept in a culture box for 3-4 days at 37° C. under 5% CO2 until cells grew sufficiently, changing culture medium everyday. When the cells matured sufficiently, the test compounds were added to the final concentrations of 0.01, 0.1, and 1 μg/ml. One week after the addition of test compounds, the culture solution was centrifuged at 5,000 rpm for 10 min. 25 μl of supernatant was transferred to a new tube and 5 μl of lysis solution [0.54N NaOH, 0.06% NP40] was added to each tube. After keeping the tube at 37° C. for 1 hr, 30 μl of neutralizing solution [0.09N HCl 0.1MTris-HCl, pH7.4] was added as a reaction solution for competitive polymerase chain reaction (PCR).
PCR was performed using genetic sequence of HBV core protein as a matrix. PCR reaction was carried out by adding 1 unit of Taq polymerase enzyme to 25 pmol of each primer, 250 μM dNTP, 5 μl of PCR reaction solution [0.54N NaOH, 0. 06% NP40, 0.09N HCl, 0.1M Tris-HCl, pH 7.4].
DNA polymerized by PCR was electrophoresed on Agarose gel and quantitatively analyzed using an image analyzer (Gel Doc 1000, Bio-Rad) in order to evaluate the effect of compounds of the present invention on the reduction of HBV proliferation.
3TC (lamivudine) was used as a positive control at the same concentrations as those of the test compounds. The percentage of reduction in HBV proliferation was calculated using the group without test compound as a control and the results are represented in Table 4.

[1] = target: T2, HIV reverse transcriptase (Human immunodeficiency virus type 1 group M subtype B, UniProt P03366); assay: In vitro HIV reverse transcriptase activity (non-radioactive RT assay kit); format: biochemical
T2 construct: purchased Boehringer Mannheim
Procedure: <Experiment 3> Inhibitory Effect on the In Vitro HIV Enzyme Activities in Reverse Transcription
The following in vitro experiments were done to determine the effect of compounds of formula 1 on the reduction of HIV enzyme activities in reverse transcription.
Non-radioactive reverse transcriptase assay kit (Boehringer Mannheim) was used in the measurement of in vitro transcriptase activities. 20 μl (40 ng) of HIV transcriptase and 20 μl of reaction mixture containing matrix-primer hybrid poly(A)oligo(dT)15, DIG(digoxigenin)-dUTP, biotin-dUTP, and TTP were added to wells coated with streptavidin. Test compounds were also added at the final concentrations of 0.1 and 1 μg/ml and allowed to react at 37° C. for 1 hr. At this time, DNA is formed from RNA by the action of HIV reverse transcriptase, forming bonds with streptavidin coated on the bottom of wells because of digoxigenin and biotin moieties attached to nucleotides.
When the reaction was completed, each well was washed with 250 μl of cleaning buffer (pH7.0) for 30sec. five times to remove remaining impurities. 200 μl of anti-DIG-POD […] was added to each well, allowed to react at 37° C. for 1 hr and washed as above to remove impurities. 200 μl of ABTS™, a substrate for peroxidase, was added to each well and allowed to react at room temperature for 30 min. Absorbance at 405 nm was then read for each solution using ELISA reader and used for quantitative determination of inhibitory effect on the HIV transcriptase activities. The percentage of reduction in the activities of HIV reverse transcriptase was calculated using the group without test compound as control and the results are represented in Table 5.

melting point	SMILES	Inhibition activity on HBV-RT (%) (HBV polymerase; 0.01 μg/ml test compound)	Inhibition activity on HBV-RT (%) (HBV polymerase; 0.1 μg/ml test compound)	Inhibition activity on HBV-RT (%) (HBV polymerase; 1 μg/ml test compound)	Inhibitory effect on the HBV proliferation: Inhibition activity on HBV-RT (%) (HBV; 0.01 μg/ml)	Inhibitory effect on the HBV proliferation: Inhibition activity on HBV-RT (%) (HBV; 0.1 μg/ml)	Inhibitory effect on the HBV proliferation: Inhibition activity on HBV-RT (%) (HBV; 1 μg/ml)	Inhibitory effect on the activities of HIV reverse transcriptase: Inhibition activity on HIV-RT (%) ([1]; 0.1 μg/ml test compound)	Inhibitory effect on the activities of HIV reverse transcriptase: Inhibition activity on HIV-RT (%) ([1]; 1 μg/ml test compound)	inhibition at 0.01 µg/mL (HBV polymerase; 0.01 μg/ml test compound) [%]	inhibition at 0.1 µg/mL (HBV polymerase; 0.1 μg/ml test compound) [%]	inhibition at 1 µg/mL (HBV polymerase; 1 μg/ml test compound) [%]	inhibition at 0.01 µg/mL (HBV; 0.01 μg/ml) [%]	inhibition at 0.1 µg/mL (HBV; 0.1 μg/ml) [%]	inhibition at 1 µg/mL (HBV; 1 μg/ml) [%]
	CC(C)Nc1ccc([N+](=O)[O-])c(Nc2ccc3[nH]ncc3c2)n1 [Example 5, 2-(1H-5-indazolylamino)-6-isopropyl amino-3-nitropyridine]	53	87	96	41	81	94	20	55						
	CN(C)CCNc1ccc([N+](=O)[O-])c(Nc2ccc3cn[nH]c3c2)n1 [Example 16, 6-[2-(dimethylamino)ethylamino]-2-(1H-6-indazolylamino)-3-nitropyridine]							51	75	38	55	80			
260 °C (dec.)	CN1CCN(Nc2ccc([N+](=O)[O-])c(Nc3ccc4cn[nH]c4c3)n2)CC1 [Example 18, 2-(1H-6-indazolylamino)-6-(4-methyl-1-piperazinyl)amino-3-nitropyridine]									25	43	70			
	O=[N+]([O-])c1ccc(N2CCN(CCO)CC2)nc1Nc1ccc2cn[nH]c2c1 [Example 27, 6-[4-(2-hydroxyethyl)-1-piperazinyl]-2-(1H-6-indazolylamino)-3-nitropyridine]							45	81	15	38	60			
	O=[N+]([O-])c1ccc(NCc2ccncc2)nc1Nc1ccc2[nH]ncc2c1 [Example 21, 2-(1H-5-indazolylamino)-3-nitro-6-(4-pyridyl)methylaminopyridine]							39	72	45	65	94	33	50	90
	CNc1ccc([N+](=O)[O-])c(Nc2ccc3cn[nH]c3c2)n1 [Example 4, 2-(1H-6-indazolylamino)-6-methyl amino-3-nitropyridine]	26	51	60		40	58	51	70						
268 °C (dec.)	O=[N+]([O-])c1ccc(N2CCNCC2)nc1Nc1ccc2cn[nH]c2c1 [Example 24, 2-(1H-6-indazolylamino)-3-nitro-6-(1-piperazinyl)pyridine]									20	43	62			
> 270 °C	O=[N+]([O-])c1ccc(NN2CCOCC2)nc1Nc1ccc2[nH]ncc2c1 [Example 30, 2-(1H-5-indazolylamino)-6-(4-morpholinyl)amino-3-nitropyridine]									32	49	71			
	CC(C)CNc1ccc([N+](=O)[O-])c(Nc2ccc3[nH]ncc3c2)n1 [Example 7, 2-(1H-5-indazolylamino)-6-isobuthyl amino-3-nitropyridine]	47	80	95	30	75	93	45	72						
253 °C (dec.)	CN1CCN(c2ccc([N+](=O)[O-])c(Nc3ccc4cn[nH]c4c3)n2)CC1 (hydrate or solvate) [Example 26, 2-(1H-6-indazolylamino)-6-(4-methyl-1-piperazinyl)-3-nitropyridine]														
	COc1ccc([N+](=O)[O-])c(Nc2ccc3[nH]ncc3c2)n1 [Example 1, 2-(1H-5-indazolylamino)-6-methoxy-3-nitropyridine]							35	75	30	54	85	20	45	82
	CN1CCN(c2ccc([N+](=O)[O-])c(Nc3ccc4[nH]ncc4c3)n2)CC1 [Example 25, 2-(1H-5-indazolylamino)-6-(4-methyl-1-piperazinyl)-3-nitropyridine]									35	54	88	25	46	83
